The target of one data set is T1, OCT1 (Homo sapiens, UniProt O15245).
T1 sequence (O15245 1-554): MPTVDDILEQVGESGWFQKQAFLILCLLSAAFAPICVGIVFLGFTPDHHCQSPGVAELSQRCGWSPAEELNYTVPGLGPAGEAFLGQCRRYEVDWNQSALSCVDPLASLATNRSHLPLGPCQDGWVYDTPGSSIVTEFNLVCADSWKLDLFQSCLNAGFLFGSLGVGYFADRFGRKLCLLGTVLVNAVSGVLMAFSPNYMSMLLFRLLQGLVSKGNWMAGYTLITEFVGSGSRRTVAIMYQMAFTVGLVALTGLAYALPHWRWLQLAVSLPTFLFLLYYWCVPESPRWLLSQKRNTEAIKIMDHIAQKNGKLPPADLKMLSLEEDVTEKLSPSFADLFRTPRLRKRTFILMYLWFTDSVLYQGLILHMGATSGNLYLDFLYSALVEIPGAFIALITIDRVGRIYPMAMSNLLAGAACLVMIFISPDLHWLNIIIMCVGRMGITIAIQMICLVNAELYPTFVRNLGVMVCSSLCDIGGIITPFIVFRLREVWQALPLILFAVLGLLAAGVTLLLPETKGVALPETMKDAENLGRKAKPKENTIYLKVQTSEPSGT
Description: In vitro drug-drug interaction studies: OCT1 transporter inhibition. Format: in vitro ADME. Conditions: based upon in vitro studies.

For a further data set, the target named is T2, OATP2B1 (Homo sapiens, UniProt O94956).
T2 sequence (O94956 1-709): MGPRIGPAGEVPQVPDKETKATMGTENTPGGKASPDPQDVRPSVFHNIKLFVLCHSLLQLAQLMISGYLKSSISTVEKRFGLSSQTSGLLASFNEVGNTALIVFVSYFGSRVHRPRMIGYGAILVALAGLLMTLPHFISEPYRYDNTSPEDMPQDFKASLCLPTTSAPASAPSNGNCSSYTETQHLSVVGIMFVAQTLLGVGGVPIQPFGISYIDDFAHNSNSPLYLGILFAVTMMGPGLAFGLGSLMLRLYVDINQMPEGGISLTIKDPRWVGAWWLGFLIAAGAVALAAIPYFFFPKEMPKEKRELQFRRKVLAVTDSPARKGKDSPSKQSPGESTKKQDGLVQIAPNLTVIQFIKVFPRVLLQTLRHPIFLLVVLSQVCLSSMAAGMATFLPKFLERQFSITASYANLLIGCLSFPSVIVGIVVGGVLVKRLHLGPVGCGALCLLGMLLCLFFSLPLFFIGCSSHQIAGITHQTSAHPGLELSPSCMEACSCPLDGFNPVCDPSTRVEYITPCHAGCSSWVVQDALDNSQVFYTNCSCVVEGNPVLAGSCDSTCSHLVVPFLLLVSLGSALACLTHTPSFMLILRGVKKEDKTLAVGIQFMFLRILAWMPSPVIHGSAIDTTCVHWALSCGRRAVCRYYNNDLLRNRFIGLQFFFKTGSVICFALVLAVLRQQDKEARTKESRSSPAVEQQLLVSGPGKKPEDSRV
Briefly: In vitro drug-drug interaction studies: OATP2B1 transporter inhibition. It counts as in vitro ADME. Conditions: based upon in vitro studies.

The target in another data set is CYP2D6 (Homo sapiens, UniProt P10635). Briefly: In vitro drug-drug interaction studies: CYP2D6 inhibition. Format: in vitro ADME. Conditions: based upon in vitro studies.
CYP2D6, sequence (P10635 whole entry): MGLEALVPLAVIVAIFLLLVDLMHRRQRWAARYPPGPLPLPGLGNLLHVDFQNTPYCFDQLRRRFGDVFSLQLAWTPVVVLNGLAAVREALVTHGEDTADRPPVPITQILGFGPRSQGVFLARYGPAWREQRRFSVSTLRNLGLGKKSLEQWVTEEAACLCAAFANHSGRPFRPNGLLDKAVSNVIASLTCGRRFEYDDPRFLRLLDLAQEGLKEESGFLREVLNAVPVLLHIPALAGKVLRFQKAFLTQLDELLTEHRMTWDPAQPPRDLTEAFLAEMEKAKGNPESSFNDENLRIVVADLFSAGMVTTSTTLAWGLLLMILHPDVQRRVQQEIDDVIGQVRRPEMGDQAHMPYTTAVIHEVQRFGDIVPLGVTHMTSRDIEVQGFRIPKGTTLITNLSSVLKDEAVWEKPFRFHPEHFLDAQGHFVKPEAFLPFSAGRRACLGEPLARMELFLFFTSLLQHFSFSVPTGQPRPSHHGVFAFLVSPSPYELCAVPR
The next data set deals with T3, BCRP (Homo sapiens, UniProt Q9UNQ0).
T3 sequence (Q9UNQ0 1-655): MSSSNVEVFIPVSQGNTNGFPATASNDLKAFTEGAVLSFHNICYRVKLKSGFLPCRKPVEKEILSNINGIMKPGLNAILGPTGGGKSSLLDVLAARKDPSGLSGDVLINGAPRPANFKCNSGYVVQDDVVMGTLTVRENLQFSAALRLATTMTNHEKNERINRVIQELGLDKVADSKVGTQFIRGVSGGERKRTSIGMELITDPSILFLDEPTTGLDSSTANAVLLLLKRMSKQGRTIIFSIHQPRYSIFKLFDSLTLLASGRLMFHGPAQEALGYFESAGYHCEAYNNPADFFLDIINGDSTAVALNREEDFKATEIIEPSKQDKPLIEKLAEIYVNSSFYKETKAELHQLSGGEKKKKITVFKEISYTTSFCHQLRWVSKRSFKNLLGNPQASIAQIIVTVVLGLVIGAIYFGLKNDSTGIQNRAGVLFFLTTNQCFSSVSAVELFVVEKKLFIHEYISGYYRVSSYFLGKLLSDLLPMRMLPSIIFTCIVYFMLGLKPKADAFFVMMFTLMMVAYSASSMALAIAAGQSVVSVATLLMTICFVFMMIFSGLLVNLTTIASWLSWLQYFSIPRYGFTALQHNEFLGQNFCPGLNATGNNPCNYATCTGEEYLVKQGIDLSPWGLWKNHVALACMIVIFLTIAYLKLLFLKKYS
Briefly: In vitro drug-drug interaction studies: BCRP transporter inhibition. Conditions: based upon in vitro studies. It counts as in vitro ADME.

Another data set addresses CYP2C9 (Homo sapiens, UniProt P11712). Briefly: In vitro drug-drug interaction studies: CYP2C9 inhibition. Format: in vitro ADME. Conditions: based upon in vitro studies.
Data set [1] can be described thus: Repeat-dose toxicity studies in monkeys (up to 9-month). It counts as in vivo. Conditions: monkey, in vivo.
Another data set relates to monkeys. The data set is described as above. It counts as in vivo.
Data set [2] in a line: Rat embryofetal development study. It counts as in vivo. Conditions: female, rat, in vivo, po; plasma toxicokinetics on Gestational Day 17, 1000 mg/kg/day; read-out: AUC0-24 at rat EFD NOEL.
The subject of the next data set is rats. Briefly: Rat embryofetal development study. Format: in vivo.
Setting [3] is: AUC in animals/(predicted) AUC in humans.

Bounds are passed on as bounds.

As a reminder, the NOAEL is the highest dose or exposure tested at which no adverse effect was seen.

CYP2C9, sequence (P11712 whole entry): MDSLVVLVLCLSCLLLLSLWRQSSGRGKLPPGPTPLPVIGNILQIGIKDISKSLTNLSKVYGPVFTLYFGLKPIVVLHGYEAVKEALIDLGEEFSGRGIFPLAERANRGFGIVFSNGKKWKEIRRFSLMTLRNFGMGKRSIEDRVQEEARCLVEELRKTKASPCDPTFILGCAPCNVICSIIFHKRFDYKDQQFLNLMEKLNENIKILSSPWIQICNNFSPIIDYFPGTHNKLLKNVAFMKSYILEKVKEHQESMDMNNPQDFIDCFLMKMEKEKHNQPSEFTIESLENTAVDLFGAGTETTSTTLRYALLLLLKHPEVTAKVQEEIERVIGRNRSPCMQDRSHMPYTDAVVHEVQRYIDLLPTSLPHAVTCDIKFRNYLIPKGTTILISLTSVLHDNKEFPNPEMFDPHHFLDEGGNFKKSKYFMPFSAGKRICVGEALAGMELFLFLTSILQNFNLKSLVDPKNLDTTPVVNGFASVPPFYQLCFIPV

Turning to `CN1C(=O)[C@@H](NC(=O)c2n[nH]c(Cc3ccccc3)n2)COc2ccc(C#CC(C)(C)O)cc21` [Compound I, (S)-5-benzyl-N-(7-(3-hydroxy-3-methylbut-1-yn-1-yl)-5-methyl-4-oxo-2,3,4,5-tetrahydrobenzo[b][1,4]oxazepin-3-yl)-1H-1,2,4-triazole-3-carboxamide], the “inhibition of substrates of OCT1 transporter” value on OCT1 is “may also inhibit”. Moreover, the “inhibition of substrates of OATP2B1 transporter” value at OATP2B1 is recorded as “may also inhibit”. For the same compound, the “inhibition of drugs metabolized by CYP2D6” value at CYP2D6 is reported as “may inhibit”. Further, the “inhibition of substrates of BCRP transporter” value against BCRP is listed as “may also inhibit”. Also, the “inhibition of drugs metabolized by CYP2C9” value against CYP2C9 is “may inhibit”. Moreover, the NOAEL at 9 months in data set [1] was 150 mg/kg. In [1] (po, plasma toxicokinetics on Day 273, 150 mg/kg/day, read-out: AUC0-24 at monkey NOAEL), the AUC(0-t) was determined as 278 µg·h/mL. Moreover, in the data set on monkeys (setting [3]), the “Margin of Safety, monkey NOAEL vs human 50 mg” value is 17 X and the “Margin of Safety, monkey NOAEL vs human 125 mg” value is recorded as 7 X. Moreover, the “doses with mortality related to secondary infections” value with monkeys (monkeys, toxicology studies up to 9 months) is reported as not below 250 mg/kg/day. The AUC(0-t) in [2] was 1120 µg·h/mL. For the same compound, in the data set with rats (setting [3]), the “Margin of Safety, rat EFD NOEL vs human 50 mg” value is 70 X and the “Margin of Safety, rat EFD NOEL vs human 125 mg” value is 28 X. The “developmental and reproductive toxicology outcome, rats” value in the data set on rats (concerns for women of childbearing potential) is recorded as “did not reveal any concerns”. Also, the “Rat EFD NOEL dose” value with rats (rat embryofetal development study) was determined as 1000 mg/kg/day.

These data come from patent US20250000872A1, “FORMULATIONS AND DOSING REGIMENS FOR RIP1 KINASE INHIBITORS FOR TREATING AUTOIMMUNE AND INFLAMMATORY DISEASES” (Eli Lilly and Company, priority 2023, published 2025).
